From PMC7997397, ““Bottom-Up” Strategy for the Identification of Novel Soybean Peptides with Angiotensin-Converting Enzyme Inhibitory Activity” (Journal of Agricultural and Food Chemistry, 2020)
Like-named read-outs stand apart in the source and are kept apart here. Each block holds one compound with its values, some of them ahead of it. Ends that are not written are not given here. Peptide text beside a SMILES is read from it.

Experiments:
[1] = biological target: T1, ACE in human intestinal Caco-2 cells (Homo sapiens, UniProt P12821); experiment: ACE activity cell-based assay (in situ) in Caco-2 cells; conditions: nondifferentiated Caco-2 cells 5 × 10^4/well, 0.1–250 μM, 24 h, 37 °C; ACE activity in cell lysates with fluorescent substrate; mean ± s.d. of three independent experiments in triplicate
T1 construct: endogenous in cells; host or cells: Caco-2 cells (INSERM, Paris)
Method: (§1) Soy1 and LPYP were tested on Caco-2 and HK2 cells (5 × 10^4/well in black 96-well plates) in 0.1–250.0 μM concentration ranges or vehicle in growth medium for 24 h at 37 °C. For a 2D cell culture on RADA16-Soy1 and RADA-LPYP hydrogels, Caco-2 cells were seeded on the surface of the abovementioned hydrogels at a density of 5 × 10^4/well. On the next day, the ACE inhibitory activity was measured using an ACE1 Activity Assay Kit (BioVision, Milpitas Blvd., Milpitas, CA, USA) following the manufacturer’s protocol. See the “Supporting Information” for further details on Acer activity cell-based assay.
(§2) In particular, Caco-2 and HK-2 cells (5 × 10^4/well) were treated with Soy1 and LPYP (0.1–250 μM) overnight. The following day, cells were lysated and the ACE activity was measured directly in the cell lysates using a fluorescent ACE substrate; in this assay, the fluorescent signal is proportional to the enzyme activity.
(§3) Figure 2 In situ evaluation of the ACE activity. […] Data represent the mean ± s.d. of three independent experiments performed in triplicate. […]
absence of carryover effects. […]
ACE activity cell-based assay. […] The next day, The ACE inhibitory activity was measured using the ACE1 Activity Assay Kit (Biovision, Milpitas Blvd., Milpitias, CA, USA) following the manufacture’s protocol. […]

[2] = In vitro gastrointestinal digestion with pepsin and pancreatin; format: in vitro ADME; conditions: peptide 100 μM; pepsin 1:100 enzyme-to-substrate, pH 2.0, 37 °C, 90 min, then pancreatin 1:50, pH 7.2, 37 °C, 150 min; HPLC-Chip ion trap MS; mean ± s.d. of three independent experiments in triplicate; read-out: degraded after codigestion with pepsin and pancreatin vs undigested peptide
Method: Pepsin solution (4 mg/mL in NaCl) was added to Soy1 and LPYP (100 μM) at a 1:100 enzyme-to-substrate ratio (pH 2.0). The digestion was conducted at 37 °C for 90 min under continuous stirring, and then, the pH was adjusted to 7.2 with 1 M NaOH in order to inactivate the enzyme. Then, pancreatin (4 mg/mL in H2O) was added at a 1:50 enzyme-to-substrate ratio. After digestion, at 37 °C for 150 min, the enzyme was inactivated by heating at 95 °C for 10 min. Further details regarding the analysis are available in the “Supporting Information”.
Their metabolic propensity to be degraded by peptidases, which are physiologically active along the entire gastrointestinal tract, might dramatically influence the bioactivity of food peptides. The literature provides many studies dealing with the assessment of food bioactive peptide stability to the simulated gastric digestion.[22],[23] In order to in-depth characterize the multifunctional behavior of Soy1 and LPYP, their stability toward the in vitro gastric digestion was assessed using pepsin and pancreatin.
Figure 1 In vitro gastrointestinal digestion. […]
In vitro digestion of Soy1 and LPYP. […] Soy1 and LPYP samples undigested and after digestion were analyzed on a SL IT mass spectrometer interfaced with a HPLC- Chip Cube source (Agilent Technologies, Palo Alto, CA, USA). […] A blank was analyzed between samples to ensure

[3] = biological target: T2, ACE in human kidney HK-2 cells (Homo sapiens, UniProt P12821); experiment: ACE activity cell-based assay (in situ) in HK-2 cells; conditions: for IC50: renal HK-2 cells 5 × 10^4/well, 0.1–250 μM, 24 h, 37 °C, ACE activity in cell lysates with fluorescent substrate, mean ± s.d. of three independent experiments in triplicate
T2 construct: endogenous in cells; host or cells: HK-2 cells (ATCC)
Method: as §1, §2, §3
absence of carryover effects. The peptides were identified by comparing their retention times, MS profiles, and MS/MS fragmentation spectra with those of authentic standards.
ACE activity cell-based assay. […] The next day, The ACE inhibitory activity was measured using the ACE1 Activity Assay Kit (Biovision, Milpitas Blvd., Milpitias, CA, USA) following the manufacture’s protocol.
Briefly, cells were scraped in 30.0 μL of ice-cold ACE lysis buffer and transferred in an ice-cold microcentrifuge tube. […] Total proteins were quantified by Bradford method, and 2.0 μg of proteins (the equivalent of 2 μL) were added to 18.0 μL of ACE lysis buffer in each well in a black 96-well plates with clear bottoms. […] Then, 20.0 μL of 4% of ACE substrate (in assay buffer) was added in each well except the background one and the fluorescence (Ex/Em 330/430 nm) was measured in a kinetic mode for 10 min at 37 °C using […]

[4] = system: ACE; conditions: read-out: IC50 ACE inhibition in vitro, cited from earlier work
Excerpt: It is well-recognized that soybean proteins contain many bioactive peptides exerting multiple health benefits, that is, hypocholesterolemic, antidiabetic, antitumor, and hypotensive activity. […] Moreover, after the hydrolysis of soybean proteins with pepsin, five peptides have been identified showing in vitro and in vivo hypotensive activity. […] Their bl ...

[5] = system: differentiated Caco-2 cells; conditions: 2 h of incubation in the apical side of monolayers; cited from earlier work
Excerpt: Mature enterocytes represent the first physiological barrier that bioactive food peptides encounter after ingestion; therefore, their absorption is a dynamic proces ...

[6] = peptides from pepsin hydrolysis of soybean proteins
[7] = soybean peptides reported in the literature

T2 sequence (P12821 30-1306): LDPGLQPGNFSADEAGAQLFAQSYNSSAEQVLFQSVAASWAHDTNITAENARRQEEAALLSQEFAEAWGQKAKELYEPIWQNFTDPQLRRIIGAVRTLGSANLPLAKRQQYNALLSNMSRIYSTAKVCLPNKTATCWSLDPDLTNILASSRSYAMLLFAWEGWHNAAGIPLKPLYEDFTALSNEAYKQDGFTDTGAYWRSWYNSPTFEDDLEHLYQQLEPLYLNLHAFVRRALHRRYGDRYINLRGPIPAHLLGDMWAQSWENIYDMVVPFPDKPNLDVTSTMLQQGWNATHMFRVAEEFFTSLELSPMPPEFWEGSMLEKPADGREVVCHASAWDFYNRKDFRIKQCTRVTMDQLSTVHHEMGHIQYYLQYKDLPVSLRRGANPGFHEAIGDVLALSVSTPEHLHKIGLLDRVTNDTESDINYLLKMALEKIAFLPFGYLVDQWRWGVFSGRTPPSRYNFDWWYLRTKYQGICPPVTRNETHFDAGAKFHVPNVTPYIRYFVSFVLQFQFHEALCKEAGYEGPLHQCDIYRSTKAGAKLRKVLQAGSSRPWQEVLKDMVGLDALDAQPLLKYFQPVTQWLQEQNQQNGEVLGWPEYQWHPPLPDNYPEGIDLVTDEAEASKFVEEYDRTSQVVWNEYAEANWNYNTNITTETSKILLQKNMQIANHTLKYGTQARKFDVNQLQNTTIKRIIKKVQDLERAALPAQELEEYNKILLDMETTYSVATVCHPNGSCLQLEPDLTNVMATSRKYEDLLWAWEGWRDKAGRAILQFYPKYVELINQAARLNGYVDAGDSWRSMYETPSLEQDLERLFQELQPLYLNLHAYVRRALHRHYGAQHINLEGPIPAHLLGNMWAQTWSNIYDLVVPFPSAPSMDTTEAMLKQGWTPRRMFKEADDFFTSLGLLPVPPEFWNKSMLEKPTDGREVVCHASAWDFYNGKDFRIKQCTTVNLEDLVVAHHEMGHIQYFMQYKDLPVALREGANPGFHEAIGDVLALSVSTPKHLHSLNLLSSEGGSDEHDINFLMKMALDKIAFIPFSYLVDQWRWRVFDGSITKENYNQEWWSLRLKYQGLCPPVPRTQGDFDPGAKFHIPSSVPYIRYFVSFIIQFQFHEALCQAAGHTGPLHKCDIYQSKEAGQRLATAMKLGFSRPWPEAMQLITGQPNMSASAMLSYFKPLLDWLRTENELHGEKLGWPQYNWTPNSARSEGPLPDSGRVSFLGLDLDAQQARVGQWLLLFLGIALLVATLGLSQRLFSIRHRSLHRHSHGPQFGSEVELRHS
T1 sequence (P12821 30-1306): as above

IC50 [1]: 5 ± 0.28 µM
metabolised at 4 h, 100 μM [2]: 28.5 ± 1.4%
IC50 [3]: 6.8 ± 0.2 µM
Compound: CC(C)C[C@H](N)C(=O)N1CCC[C@H]1C(=O)N[C@@H](Cc1ccc(O)cc1)C(=O)N1CCC[C@H]1C(=O)O [LPYP] (H-LPYP-OH)

Compound: FFL
IC50 [4, 6]: 37 µM

IC50 [1]: 14.7 ± 0.28 µM
metabolised at 4 h, 100 μM [2]: 27.7 ± 0.3%
IC50 [3]: 6 ± 0.35 µM
Compound: IAVPTGVA [Soy1, IAVPTGVA]
relative ACE inhibitory activity, renal (HK-2) vs intestinal (Caco-2) level ([3]; comparison of IC50 values in HK-2 and Caco-2 cells): twofold more active at the renal level than at the intestinal level
absorption by differentiated Caco-2 cells [5]: better absorbed than LPYP

Compound: IYLL [peptide from pepsin hydrolysis of soybean proteins]
IC50 [4, 6]: 42 µM

Compound: LAIPVNKP
IC50 [4, 7]: 70 µM

Compound: LPHF
IC50 [4, 7]: 670 µM

Compound: SPYP [peptide from soybean glycinin hydrolysed by Monascus purpureus acid proteinase]
IC50 [4, 7]: 850 µM

Compound: VMDKPQG [peptide from pepsin hydrolysis of soybean proteins]
IC50 [4, 6]: 39 µM

Compound: YLAGNQ [peptide from pepsin hydrolysis of soybean proteins]
IC50 [4, 6]: 14 µM
